Results: patent publication US20260102388A1 (priority 2022, published 2026)

Test system: SD rats
Experiment: Effect of compound implant of naltrexone on spontaneous activity
Conditions: implants 3 tablets/animal (diazepam 2 mg/kg), 60 min recording, X ± SEM
Method: Test animals: SPF-grade Sprague-Dawley (SD) rats, weighing 200±20 g, and they were fed adaptively.
Animal grouping and administration: Animals were divided into 8 groups with 12 animals in each group, half male and half female. In the experiment, animals were divided into positive control group (diazepam group, with a dose of 2 mg/kg), negative control group (normal saline), Example 1 group, Example 2 group, Comparative Example 2 group, Comparative Example 4 group, Comparative Example 5 group (dose: 3 tablets/animal), and fasten for 12 h before administration. The dosage volume for rats was 10 mL/kg.
The experiment was divided into three periods: adaptation period, pre-testing period and post-administration testing period. […]
Open field adaptation: After environmental adaptation, single rat/mouse was put into a spontaneous activity box for 60 min to adapt to the experiment box, and the spontaneous activity within 60 min was recorded, the general adaptation was 2-3 days to reduce the impact of environmental stimulation.
Baseline test: Single rat/mouse was put into a spontaneous activity box for 40 min to adapt to the experimental box, and spontaneous activity within 40 min was recorded, then divided equally to groups according to basic spontaneous activity. […]
Data were expressed as Mean±SEM. […]

SMILES: CN1C(=O)CN=C(c2ccccc2)c2cc(Cl)ccc21 [Positive control group, diazepam]
- total distance of activity: 9698.94 ± 902.16 mm
